In patent publication US8008354B2, “Death receptor sensitizing compounds and methods of use therefor” (Burnham Institute for Medical Research, priority 2006, dated 2011):
Counter-ions that a name gives are not always drawn. Like-named read-outs stand apart in the source and are kept apart here.

Assays:
PPC-1 cells [1] = assay: MTT cell viability of PPC-1 cells treated with compound with or without CH-11 anti-FAS antibody; format: cell-based; settings: for IC50: read-out: LD50 (μM) PPCl; for LD50 (μM) (PPCl, CH-11): PPC-1 cells with CH-11 100 ng/mL, MTT 24 hours, LD50 = concentration that reduces cell viability by 50%
Protocol: FIGS. 2A-C. […] PPC-1 cells (1×10^4) were seeded in 96 well plates. The next day, cells were treated with increasing concentrations of the sensitizing compounds with (open squares) and without (closed squares) CH-11 antibody (100 ng/mL). Cell viability was measured 24 hours later by MTT assay. Cell viability is expressed as a mean percentage of untreated cells+SD (n=3). The Chembridge identification numbers of the compounds are provided.
High throughput screening. […] PPC-1 cells (1×10^4) were seeded overnight into 96 well, flat-bottom plates (Costar, Cambridge, Mass.) in 100 μL of medium containing 2.5% FCS. […] CH-11 antibody (100 ng/mL) was then added, and the cells were incubated for 24 hours before assessing cell viability by a 3-(4,5-Dimethylthiazol-2-yl)-2,5-diphenyltetrazolium Bromide (MTT) dye reduction assay (Sigma).
Cell death assays. […] Absorbance readings were plotted against a standard curve to derive the corresponding cell number, and cell viability was expressed as a percentage relative to untreated cells.

FLIP = FLIP protein levels by SDS-PAGE/immunoblotting; format: cell-based, human; settings: PPC-1 cells
Protocol: FIG. 7. Effect of FAS-sensitizing compounds on levels of FLIP protein and DISC activation. (A) PPC-1 cells (2×10^5) were seeded into 35 mm plates and treated the next day with various FAS-sensitizing compounds (30 μM), with (+) or without (−) CH-11 antibody (100 ng/mL). As a positive control, cells were treated with CDDO (5 μM). Cell lysates were prepared 24 hours later, normalized for total protein content, and analyzed by SDS-PAGE/immunoblotting using antibodies specific for FLIP or a-tubulin. (B) PPC-1, OVCAR-3, T47D, MDA-MB-468 and DU 145 cells (2×10^5) were seeded into 35 mm plates and treated the next day with 5809354 (40 μM). Cell lysates were prepared 24 hours after treatment, normalized for total protein and analyzed by SDS-PAGE/immunoblotting using antibodies specific for FLIP or β-actin. (C) PPC-1, OVCAR-3, T47D, and DU 145 cells (2×10^5) were seeded into 35 mm plates and treated the next day with 5809354 (40 μM) (black bars) or buffer control (white bars). mRNA was extracted 24 hours after treatment. Levels of the long isoform of FLIP and GAPDH were detected by quantitative RT-PCR. Levels of FLIP were normalized for GAPDH expression and expressed as a mean fold change+SD over buffer treated cells. (D) PPC-1 cells (2×10^5) were seeded into 35 mm plates and treated the next day with various FAS-sensitizing compounds (30 μM) with (+) or without (−) CH-11 (100 ng/mL). Cell lysates were prepared 24 hours after treatment, normalized for total protein, and analyzed by SDS-PAGE/immunoblotting using antibodies specific for caspase-8 and β-actin.
(§1) FIG. 13. Small molecule down-regulation of FLIP sensitizes prostate cancer cells to anoikis. (A) PPC-1 cells were seeded overnight in adherent conditions and then treated with increasing concentrations of 5809354 for 16 hours. After incubation, cells were harvested. Total cellular RNA was extracted and mRNA levels of the long isoform of FLIP (FLIPL), the short isoform of FLIP (FLIPS), or rRNA levels of 18S were detected by real-time RT-PCR. Data were normalized using the ΔΔCT method and expressed as the mean±SEM percent of […] expression relative to untreated controls. (B) PPC-1 cells were cultured and treated as in panel A. Total cellular protein was isolated and analyzed by SDS-PAGE immunoblotting using anti-FLIP and anti-Actin antibodies. (C) PPC-1 cells were seeded overnight in adherent conditions and then exposed to increasing concentrations of 5809354 in the presence or absence of Fas-activating antibody (CH-11, 100 ng/mL). Thirty hours after incubation, cell viability was determined using the MTS assay. Data represents the mean±SEM of percent of viable cells. (D) PPC-1 cells were seeded overnight in adherent or suspension conditions and then treated with increasing concentrations of 5809354 for 30 hours. After incubation, apoptosis was measured by flow cytometry to detect cell surface annexin V expression and PI. Data represents the mean±SEM of percent of viable cells. (E) Cells were harvested, fixed, stained with DAPI, and nuclear morphology analyzed by fluorescence microscopy. Arrowheads refer to fragmented nuclei indicative of apoptosis. […] Thirty hours after incubation, cells were harvested and equal volumes plated in a colony formation assay. One week later, cells were stained with methylene blue and the number of colonies counted. Data represents the mean ±SEM percent of colonies relative to untreated controls.
Immunoblot analysis. Protein extracts were obtained by washing cells with phosphate-buffered saline (PBS) [pH 7.4] and suspending the cells in lysis buffer [10 mM Tris (pH 7.4), 150 mM NaCl, 0.1% Triton X-100, 0.5% sodium deoxycholate, and 5 mM EDTA] containing protease inhibitors (Complete tablets; Roche, Indianapolis, Ind.). Immunoblot assays were performed as described in Carter et al. (2005). […]

PPC-1 cells [2] = assay: MTS viability of adherent PPC-1 cells with or without CH-11, thirty hours; format: cell-based, human; settings: CH-11 100 ng/mL
Protocol: FIG. 13. Small molecule down-regulation of FLIP sensitizes prostate cancer cells to anoikis. (A) PPC-1 cells were seeded overnight in adherent conditions and then treated with increasing concentrations of 5809354 for 16 hours. After incubation, cells were harvested. Total cellular RNA was extracted and mRNA levels of the long isoform of FLIP (FLIPL), the short isoform of FLIP (FLIPS), or rRNA levels of 18S were detected by real-time RT-PCR. Data were normalized using the ΔΔCT method and expressed as the mean±SEM percent of […] expression relative to untreated controls. (B) PPC-1 cells were cultured and treated as in panel A. Total cellular protein was isolated and analyzed by SDS-PAGE immunoblotting using anti-FLIP and anti-Actin antibodies. […] Thirty hours after incubation, cell viability was determined using the MTS assay. […] After incubation, apoptosis was measured by flow cytometry to detect cell surface annexin V expression and PI. […] (E) Cells were harvested, fixed, stained with DAPI, and nuclear morphology analyzed by fluorescence microscopy. […] One week later, cells were stained with methylene blue and the number of colonies counted. […]
Cell viability apoptosis, colony formation, and caspase activation assays. Cell viability was assessed using the MTS reduction assay (Promega, Madison, Wis., USA) according to the manufacturer's protocols and as described in Schimmer et al. (2006). […]

PPC-1 cells [3] = assay: Anoikis of PPC-1 cells in suspension versus adherent conditions (annexin V/PI, DAPI, colony formation); format: cell-based, human
Protocol: FIG. 12. Depletion of endogenous FLIP levels by siRNA sensitizes malignant cells to anoikis. (A) PPC-1 cells were seeded in adherent conditions overnight and then transfected with 25 nM anti-FLIP siRNA (siFLIP) or control luciferase siRNA (siCtrl). Thirty hours after transfection, cells were harvested, total protein isolated and analyzed by SDS-PAGE immunoblotting using anti-FLIP and anti-actin antibodies. (B) PPC-1 cells were transfected with increasing concentrations of siFLIP or siCtrl. After transfection, cells were treated with CH-11 Fas activating antibody (100 ng/ml). Thirty hours after incubation, cells were harvested and apoptosis measured by flow cytometry to detect cell surface annexin V expression and PI uptake. Data represents the mean±SEM percent of viable cells. (C) PPC-1 cells were transfected with increasing concentrations of siFLIP or siCtrl. After transfection, cells were subcultured under suspension conditions for 30 hours and then harvested. Apoptosis was measured by flow cytometry to detect cell surface annexin V expression and PI uptake. Data represents the mean±SEM of percent of viable cells. (D) Equal volumes of PPC-1 cells from panel C were replated under adherent conditions to permit clonogenic growth. One week after replating, cells were stained with methylene blue and the number of colonies counted. Data represents the mean±SEM percent of colonies compared to untreated controls.
as §1
FIG. 15. 5809354 sensitizes cells to anoikis through a caspase 8 dependent mechanism. (A) PPC-1 cells (5×10^4) were cultured under suspension conditions overnight and then treated with 5809354 in the presence or absence of the pan-caspase inhibitor z-VAD-fink (100 μM). Thirty hours after incubation, anoikis was determined by flow cytometry to detect cell surface annexin V expression and PI uptake. Data represents the mean±SEM percent of viable cells or colonies compared to untreated controls. (B) PPC-1 cells (5×10^4) were cultured in suspension conditions overnight and then treated with 5809354 (60 μM). […]

[4] = Homo sapiens, PPC-1, 24 h, PPC-1 cells, compound alone without CH-11, MTT 24 hours

| Structure (SMILES) | IC50 (PPC-1 cells [1]; [4]) | LD50 (μM) (PPCl, CH-11) (PPC-1 cells [1]) | other results |
| --- | --- | --- | --- |
| O=C(Nc1ccc(Cl)c(C(F)(F)F)c1)c1cccs1 [N-[4-chloro-3-(trifluoromethyl)phenyl]-2-thiophenecarboxamide] | 96 ± 1 µM | 35 ± 11 µM | – |
| Br.CC(C)(C)c1cc(C(=O)Cn2c(=N)n(Cc3ccccc3)c3ccccc32)cc(C(C)(C)C)c1O [compound 5657593, 2-(3-benzyl-2-imino-2,3-dihydro-1H-benzo[d]imidazol-1-yl)-1-(3,5-di-tert-butyl-4-hydroxyphenyl)ethanone hydrobromide] | 9.1 µM | 3.4 µM | – |
| O=C(CCc1ccccc1)Nc1cc(C(F)(F)F)ccc1Cl [N-[2-chloro-5-(trifluoromethyl)phenyl]-3-phenylpropanamide] | > 100 µM | >100 µM | – |
| O=C(CCc1ccccc1)Nc1ccc(Cl)c(C(F)(F)F)c1 [N-[4-chloro-3-(trifluoromethyl)-phenyl]-3-phenyl-proionamide] | 85 ± 3 µM | 11 ± 1 µM | – |
| O=C(CCc1ccccc1)Nc1ccc(Cl)cc1C(F)(F)F [N-[4-chloro-2-(trifluoromethyl)phenyl]-3-phenylpropanamide] | > 100 µM | >100 µM | – |
| Br.Cc1ccc(Cn2c(=N)n(CC(=O)c3cc(C(C)(C)C)c(O)c(C(C)(C)C)c3)c3ccccc32)cc1 [compound 5651311, 1-(3,5-di-tert-butyl-4-hydroxyphenyl)-2-(2-imino-3-(4-methylbenzyl)-2,3-dihydro-1H-benzo[d]imidazol-1-yl)ethanone hydrobromide] | 19 µM | 9 µM | – |
| C/C(CC(=O)Nc1ccc(Cl)c(C(F)(F)F)c1)=N\NC(=O)c1cnccn1 [N-(4-Chloro-3-trifluoromethyl-phenyl)-3-[(pyrazine-2-carbonyl)-hydrazono]-butyramide] | 67 ± 3 µM | 11 ± 3 µM | – |
| CC(C)(C)c1cc(C(=O)Cn2c(=N)n(CCN3CCCCC3)c3ccccc32)cc(C(C)(C)C)c1O.Cl [compound 5529457, 1-(3,5-di-tert-butyl-4-hydroxyphenyl)-2-(2-imino-3-(2-(piperidin-1-yl)ethyl)-2,3-dihydro-1H-benzo[d]imidazol-1-yl)ethanone hydrochloride] | 7.5 µM | 3.7 µM | – |
| O=C(Cc1ccc(Cl)cc1)N1CCN(C/C=C/c2ccccc2)CC1 [compound 5703229, 1-[(4-chlorophenyl)acetyl]-4-[(2e)3-phenylprop-2-enyl]piperazine] | – | 34+4 μM | IC50 (PPC-1 cells [1]; Homo sapiens, PPC-1, 24 h): 50 µM |
| CC(=O)CC(=O)Nc1cc(C(F)(F)F)ccc1Cl [N-[2-chloro-5-(trifluoromethyl)phenyl]-3-oxobutanamide] | 75 ± 1 µM | 65 ± 5 µM | – |
| Cn1c(=N)n(CC(=O)c2cc(C(C)(C)C)c(O)c(C(C)(C)C)c2)c2ccccc21 [compound 5541203, 1-(3,5-di-tert-butyl-4-hydroxyphenyl)-2-(2-imino-3-methyl-2,3-dihydro-1H-benzo[d]imidazol-1-yl)ethanone hydrobromide] | 45 µM | 25.7 µM | EC50 (PPC-1 cells [1]; Homo sapiens, PPC-1, with anti-FAS antibody, read-out: EC50 as a FAS-sensitizer in PPC1 cells): 25.7 µM; IC50 (PPC-1 cells [1]; PPC-1 cells, compound alone without CH-11, MTT 24 hours; hydrobromide)): 45.4 µM; levels of FLIP protein (FLIP; 30 μM, with or without CH-11, 24 hours, long isoform): had little effect |
| CCOCCCNC(=O)CCCOc1ccc(Cl)cc1C [compound 7271570, (4-(4-chloro-2-methylphenoxy))-N-(3-ethoxypropyl)-butanamide] | – | – | FLIP protein expression (FLIP; Example 2, increasing concentrations, 16 hours): failed to decrease FLIP levels; viability in the presence of Fas-activating antibody (CH-11) (PPC-1 cells [2]): failed to sensitize; sensitization to anoikis (PPC-1 cells [3]; suspension conditions, 30 hours): failed to sensitize; colony formation after suspension culture (PPC-1 cells [3]; thirty hours in suspension, colonies counted one week later): inactive |
